Results from patent publication US20140179664A1, “Heterocyclyl Pyrimidine Analogues As JAK Inhibitors” (Cellzome Limited, priority 2011, published 2014).

Target: T1, JAK1 (Homo sapiens, UniProt P23458)
T1 construct: endogenous in cells; host or cells: Molt4 (ATCC CRL-1582) and Ramos (ATCC CRL-1596), mixed lysate 1:2
Experiment: Kinobeads assay, JAK1
Assay type: binding
Settings: mixed Molt4/Ramos lysate, read-out: Inhibition values (IC50) JAK1
How it was run: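 Competitive pulldown in combined Molt4 and Ramos lysates (1 vs 2 volumes): compound, as a nine-point 1:3 series, and kinobeads were shaken together for 3 hours in a cold room. Captured JAK1 was quantified on an infrared-read antibody dot blot and IC50 calculated. Controls held 2% DMSO without compound.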

T1 sequence (P23458 whole entry): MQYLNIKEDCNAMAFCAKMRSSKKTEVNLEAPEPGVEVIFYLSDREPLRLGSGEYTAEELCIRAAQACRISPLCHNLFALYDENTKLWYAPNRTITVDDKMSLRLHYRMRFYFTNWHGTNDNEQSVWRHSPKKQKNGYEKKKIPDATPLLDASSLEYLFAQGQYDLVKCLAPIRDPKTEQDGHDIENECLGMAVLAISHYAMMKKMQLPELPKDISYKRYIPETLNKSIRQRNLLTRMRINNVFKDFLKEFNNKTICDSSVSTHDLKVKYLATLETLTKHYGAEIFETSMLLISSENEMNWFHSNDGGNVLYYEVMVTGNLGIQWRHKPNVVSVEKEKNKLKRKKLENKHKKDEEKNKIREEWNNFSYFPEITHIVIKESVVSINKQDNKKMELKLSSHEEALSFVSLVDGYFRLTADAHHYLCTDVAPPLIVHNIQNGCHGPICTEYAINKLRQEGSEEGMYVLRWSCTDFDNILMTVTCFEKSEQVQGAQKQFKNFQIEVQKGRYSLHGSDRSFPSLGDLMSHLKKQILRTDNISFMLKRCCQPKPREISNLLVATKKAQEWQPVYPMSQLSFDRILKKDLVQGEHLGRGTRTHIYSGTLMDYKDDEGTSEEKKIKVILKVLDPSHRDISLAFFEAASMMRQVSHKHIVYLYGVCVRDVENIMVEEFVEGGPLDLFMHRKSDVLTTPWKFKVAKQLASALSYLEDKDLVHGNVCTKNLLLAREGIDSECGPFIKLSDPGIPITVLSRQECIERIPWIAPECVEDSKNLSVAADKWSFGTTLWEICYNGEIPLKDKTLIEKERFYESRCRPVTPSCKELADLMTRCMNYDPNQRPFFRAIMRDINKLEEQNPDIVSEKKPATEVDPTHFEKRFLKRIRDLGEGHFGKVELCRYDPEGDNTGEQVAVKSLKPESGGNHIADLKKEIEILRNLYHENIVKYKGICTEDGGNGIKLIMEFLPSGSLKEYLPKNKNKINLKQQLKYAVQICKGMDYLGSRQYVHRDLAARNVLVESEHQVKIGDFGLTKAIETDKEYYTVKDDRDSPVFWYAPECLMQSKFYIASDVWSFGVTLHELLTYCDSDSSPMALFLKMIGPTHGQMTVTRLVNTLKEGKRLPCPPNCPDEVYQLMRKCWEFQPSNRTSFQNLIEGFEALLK

SMILES	IC50
OCCn1ccc(Nc2ncc(Cl)c(NC(CO)c3ccccc3F)n2)n1 (centres unmarked) [Compound 50]	> 10 µM
OCCn1ccc(Nc2ncc(Cl)c(NC(CO)c3cccc(F)c3)n2)n1 (centres unmarked) [Compound 41]	> 10 µM
COCCNC(=O)[C@@H](Nc1nc(Nc2cnn(C)c2)ncc1Cl)c1ccccc1 [Compound 29]	1 to 10 µM
Cc1cnc(Nc2cnn(CC(F)F)c2)nc1N[C@H](CO)c1cc(F)cc(F)c1 [Compound 167]	1 to 10 µM
Cn1cc(Nc2ncc(Cl)c(NC(CO)c3cccc(-c4cnn(C)c4)c3)n2)cn1 (centres unmarked) [Compound 69]	> 10 µM
CNC(=O)[C@@H](Nc1nc(Nc2cnn(C)c2)ncc1Cl)c1ccccc1 [Compound 20]	1 to 10 µM
CC(C)(O)Cn1cc(Nc2ncc(Cl)c(NC(CO)c3ccccc3F)n2)cn1 (centres unmarked) [Compound 57]	1 to 10 µM
COc1cccc([C@@H](CO)Nc2nc(Nc3cnn(C)c3)ncc2Cl)c1 [Compound 82]	1 to 10 µM
COc1ccccc1[C@@H](CO)Nc1nc(Nc2cnn(CCO)c2)ncc1Cl [Compound 76]	0.1 to 1 µM
OCCn1ccc(Nc2ncc(Cl)c(NC(CO)c3c(F)cccc3F)n2)n1 (centres unmarked) [Compound 45]	> 10 µM
Cn1cc(Nc2ncc(Cl)c(N[C@H](CO)c3ccccc3F)n2)cn1 [Compound 58]	1 to 10 µM
CC(C)(O)Cn1cc(Nc2ncc(Cl)c(NC(CO)c3cccc(F)c3)n2)cn1 (centres unmarked) [Compound 61]	1 to 10 µM
Cc1cnc(Nc2cnn(CCO)c2)nc1NC(CO)c1ccccc1 (centres unmarked) [Compound 12]	1 to 10 µM
NC(=O)Cn1cc(Nc2ncc(Cl)c(N[C@H](CO)c3ccccn3)n2)cn1 [Compound 81]	0.1 to 1 µM
NC(=O)Cn1cc(Nc2ncc(Cl)c(N[C@H](CO)c3ccccc3)n2)cn1 [Compound 56]	0.1 to 1 µM
Cn1cc(Nc2ncc(Cl)c(NC(CO)c3ccc(F)cc3)n2)cn1 (centres unmarked) [Compound 71]	1 to 10 µM
COc1ccccc1[C@@H](CO)Nc1nc(Nc2cnn(C)c2)ncc1Cl [Compound 74]	0.1 to 1 µM
OCCn1cc(Nc2ncc(Cl)c(NC(CO)Cc3ccccc3)n2)cn1 (centres unmarked) [Compound 19]	0.1 to 1 µM
Cn1cc(Nc2ncc(Cl)c(NC(CO)c3cccc(F)c3)n2)cn1 (centres unmarked) [Compound 40]	1 to 10 µM
OCCn1cc(Nc2ncc(Cl)c(NC(CO)c3ccccc3F)n2)cn1 (centres unmarked) [Compound 36]	0.1 to 1 µM
CN(C)C(=O)[C@@H](Nc1nc(Nc2cnn(CCO)c2)ncc1Cl)c1ccccc1 [Compound 26]	1 to 10 µM
OCCn1cc(Nc2ncc(Cl)c(N[C@@H](CO)c3ccccc3)n2)cn1 [Compound 63]	1 to 10 µM
COCCNC(=O)[C@@H](Nc1nc(Nc2cnn(CCO)c2)ncc1Cl)c1ccccc1 [Compound 48]	0.1 to 1 µM
Cn1ccc(Nc2ncc(Cl)c(N[C@H](CO)c3ccccc3)n2)n1 [Compound 11]	> 10 µM
CCNC(=O)[C@@H](Nc1nc(Nc2cnn(CCO)c2)ncc1Cl)c1ccccc1 [Compound 27]	1 to 10 µM

SMILES	IC50
O=C(NC1CCCC1)[C@@H](Nc1nc(Nc2cnn(CCO)c2)ncc1Cl)c1ccccc1 [Compound 60]	1 to 10 µM
Cn1cc(Nc2ncc(Cl)c(NC(CO)Cc3ccccc3)n2)cn1 (centres unmarked) [Compound 14]	1 to 10 µM
Cn1cc(Nc2ncc(Cl)c(NC(CO)c3cccc(N4CC5(COC5)C4)c3)n2)cn1 (centres unmarked) [Compound 53]	> 10 µM
O=C(c1cc(Nc2ncc(Cl)c(N[C@H](CO)c3ccccc3)n2)c[nH]1)N1CCOCC1 [Compound 13]	1 to 10 µM
OCCn1cc(Nc2ncc(Cl)c(NC(CO)c3c(F)cccc3F)n2)cn1 (centres unmarked) [Compound 43]	0.1 to 1 µM
COC(=O)C(Nc1nc(Nc2cnn(C)c2)ncc1Cl)c1ccccc1 (centres unmarked) [Compound 16]	1 to 10 µM
O=C(NCCO)[C@@H](Nc1nc(Nc2cnn(CCO)c2)ncc1Cl)c1ccccc1 [Compound 47]	0.1 to 1 µM
Cn1cc(Nc2ncc(Cl)c(N[C@@H](CO)c3ccccc3)n2)cn1 [Compound 54]	> 10 µM
OCCn1cc(Nc2ncc(Cl)c(N[C@H](CO)c3ccccn3)n2)cn1 [Compound 80]	0.1 to 1 µM
CNC(=O)Cn1cc(Nc2ncc(Cl)c(NC(CO)c3c(F)cccc3F)n2)cn1 (centres unmarked) [Compound 31]	1 to 10 µM
Cc1cnc(Nc2cnn(CC(=O)N3CCOCC3)c2)nc1NC(CO)c1c(F)cccc1F (centres unmarked) [Compound 169]	1 to 10 µM
O=C([C@@H](Nc1nc(Nc2cnn(CCO)c2)ncc1Cl)c1ccccc1)N1CCCC1 [Compound 35]	1 to 10 µM
CCNC(=O)[C@@H](Nc1nc(Nc2cnn(C)c2)ncc1Cl)c1ccccc1 [Compound 28]	1 to 10 µM
Cn1cc(Nc2ncc(Cl)c(N[C@H](C(=O)N3CCCC3)c3ccccc3)n2)cn1 [Compound 34]	1 to 10 µM
Cn1cc(Nc2ncc(F)c(NC(CO)c3ccccc3)n2)cn1 (centres unmarked) [Compound 2]	> 10 µM
CC(C)(O)Cn1cc(Nc2ncc(Cl)c(NC(CO)c3c(F)cccc3F)n2)cn1 (centres unmarked) [Compound 62]	1 to 10 µM
CC(C)OC(=O)Cn1cc(Nc2ncc(Cl)c(N[C@H](CO)c3ccccc3)n2)cn1 [Compound 21]	1 to 10 µM
O=C(O)Cn1cc(Nc2ncc(Cl)c(N[C@H](CO)c3ccccc3)n2)cn1 [Compound 24]	1 to 10 µM
OCCn1cc(Nc2ncc(Cl)c(NC(CO)c3cccc(F)c3)n2)cn1 (centres unmarked) [Compound 39]	0.1 to 1 µM
CNC(=O)Cn1cc(Nc2ncc(Cl)c(NC(CO)c3ccccc3F)n2)cn1 (centres unmarked) [Compound 33]	1 to 10 µM
CNC(=O)Cn1cc(Nc2ncc(Cl)c(N[C@H](CCO)c3ccccc3)n2)cn1 [Compound 66]	1 to 10 µM
Cn1cc(Nc2ncc(Cl)c(N[C@H](C(=O)NC3CCCC3)c3ccccc3)n2)cn1 [Compound 59]	> 10 µM
O=C(O)C(Nc1nc(Nc2cnn(CCO)c2)ncc1Cl)c1ccccc1 (centres unmarked) [Compound 17]	> 10 µM
OCCCn1cc(Nc2ncc(Cl)c(NC(CO)c3ccccc3F)n2)cn1 (centres unmarked) [Compound 64]	1 to 10 µM
CC(O)Cn1cc(Nc2ncc(Cl)c(NC(CO)c3cccc(F)c3)n2)cn1 (centres unmarked) [Compound 38]	0.1 to 1 µM

SMILES	IC50
Cn1cc(Nc2ncc(Cl)c(N[C@H](C(=O)N3CCCCC3)c3ccccc3)n2)cn1 [Compound 49]	1 to 10 µM
OC[C@@H](Nc1nc(Nc2cn[nH]c2)ncc1Cl)c1ccccc1F [Compound 79]	0.1 to 1 µM
COc1cccc([C@@H](CO)Nc2nc(Nc3cnn(CCO)c3)ncc2Cl)c1 [Compound 83]	1 to 10 µM
COc1cccc([C@@H](CO)Nc2nc(Nc3cnn(CC(N)=O)c3)ncc2Cl)c1 [Compound 84]	1 to 10 µM
Cn1cc(Nc2ncc(Cl)c(NC(CO)c3ccccc3F)n2)cn1 (centres unmarked) [Compound 37]	1 to 10 µM
CNC(=O)Cn1cc(Nc2ncc(Cl)c(NC(CO)c3cccc(F)c3)n2)cn1 (centres unmarked) [Compound 32]	1 to 10 µM
CNC(=O)Cn1cc(Nc2ncc(Cl)c(N[C@H](CO)c3cccnc3)n2)cn1 [Compound 170]	1 to 10 µM
Cc1cnc(Nc2cnn(CC(F)F)c2)nc1NC(CO)c1c(F)cccc1F (centres unmarked) [Compound 168]	1 to 10 µM
OCC[C@@H](Nc1nc(Nc2cnn(CCO)c2)ncc1Cl)c1ccccc1 [Compound 65]	1 to 10 µM
OCCn1cc(Nc2ncc(Cl)c(N[C@H](CO)c3ccccc3F)n2)cn1 [Compound 77]	0.1 to 1 µM
COC[C@@H](Nc1nc(Nc2cnn(C)c2)ncc1Cl)c1ccccc1 [Compound 55]	> 10 µM
CC(C)(C(N)=O)n1cc(Nc2ncc(Cl)c(N[C@H](CO)c3ccccc3F)n2)cn1 [Compound 73]	1 to 10 µM
OCCn1cc(Nc2ncc(Cl)c(NC(CO)c3ccc(F)cc3)n2)cn1 (centres unmarked) [Compound 72]	1 to 10 µM
CC(O)Cn1cc(Nc2ncc(Cl)c(NC(CO)c3c(F)cccc3F)n2)cn1 (centres unmarked) [Compound 42]	1 to 10 µM
Cn1cc(Nc2ncc(Cl)c(NC(CO)c3cccc(Br)c3)n2)cn1 (centres unmarked) [Compound 52]	1 to 10 µM
CCOC(=O)Cn1cc(Nc2ncc(Cl)c(N[C@H](CO)c3ccccc3)n2)cn1 [Compound 22]	0.1 to 1 µM
Cn1cc(Nc2ncc(Cl)c(NC(CO)c3c(F)cccc3F)n2)cn1 (centres unmarked) [Compound 44]	1 to 10 µM
CN(CC#N)C(=O)Cn1cc(Nc2ncc(Cl)c(N[C@H](CO)c3ccccc3)n2)cn1 [Compound 70]	0.1 to 1 µM
Cn1cc(Nc2ncc(Cl)c(N[C@H](C(=O)NCCO)c3ccccc3)n2)cn1 [Compound 46]	1 to 10 µM
Cn1cc(Nc2ncc(Cl)c(NC(CO)c3ccccc3)n2)cn1 (centres unmarked) [Compound 1]	1 to 10 µM
O=C([C@@H](Nc1nc(Nc2cnn(CCO)c2)ncc1Cl)c1ccccc1)N1CCCCC1 [Compound 51]	> 10 µM
Cn1cc(Nc2ncc(Cl)c(NC(C(=O)O)c3ccccc3)n2)cn1 (centres unmarked) [Compound 18]	1 to 10 µM
CN(C)C(=O)[C@@H](Nc1nc(Nc2cnn(C)c2)ncc1Cl)c1ccccc1 [Compound 25]	1 to 10 µM
COC(=O)C(Nc1nc(Nc2cnn(CCO)c2)ncc1Cl)c1ccccc1 (centres unmarked) [Compound 15]	1 to 10 µM
